From patent US20250009649A1, “Implants for Loss of Taste and Smell” (Cyrano Therapeutics, Inc., priority 2021, published 2025) come the findings set out here.

In series [1] the test system is patient who had loss of taste and smell from COVID-19. The experiment in a line: Psychophysical smell test, forced-choice, three-stimuli, stepwise-staircase technique (detection and recognition thresholds for four odors). The series is classed as in vivo, human. From the text:
The Patient initially reported their sensory dysfunction as either loss of taste (i.e., flavor) and/or smell function. This subjective response was documented by objective psychophysical measurements of olfactory function administered to each patient by use of a forced-choice, three-stimuli, stepwise-staircase technique in a fixed, controlled design (1, 2). Efficacy of this technique and results of testing were previously documented in a double-blind clinical trial (2). Four odors were used; they were pyridine (dead-fish odor), nitrobenzene (bitter-almond odor), thiophene (petroleum-like odor) and amyl acetate (banana-oil odor). Detection thresholds (DT), and recognition thresholds (RT) values for each odor were determined as previously described (1, 2). Thresholds were converted into bottle units (BU) as previously described (2) and results reported as M of correct responses for each odor in each treatment group. References: (1) Henkin, R. I. Evaluation and treatment of human olfactory dysfunction, in Otolaryngology (English, G. M. Ed.), Lip pincott, Philadelphia, 1993, Vol. 2, pp. 1-86. (2) Henkin, R. I., Schecter, P. J., Friedewald, W. T., DeMets, D. L., Raff, M. S. A double blind study of the effects of zinc sulfate on taste and smell dysfunction. Amer. J. Med. Sci. 1976; 272: 285-299.
(§1) Theophylline was administered to a patient who had loss of taste and smell from COVID-19. A formulation containing 80 μg of theophylline was administered via two actuations from nasal spray device once per day. Prior to the initial administration of theophylline, a baseline smell test was performed. A follow-up smell test was performed 3 months after the initial administration. […] The patient's detection threshold (DT) and recognition threshold (RT) for pyridine (Pyr), nitrobenzene (NO2B), thiophene (Thio) and amyl acetate (AA) was determined before treatment (pre) and after treatment (3M). In all four odorant tests, the patient's detection threshold and recognition threshold improved. An improvement of 1 bottle unit means that a patient could detect and/or recognize an odorant that was 10 times lower in concentration, when compared to baseline. For example, the recognition threshold (RT) of AA improved by 8 bottle units, also equivalent to an improvement of 8 orders of magnitude. In this case, the patient could detect a concentration of AA that was 10^8 lower in concentration. Bottle unit numbers that are 5 or lower are considered to be in the range of normal.

The test system is the same in series [2]. As to the kind of experiment: Side effects reported during intranasal theophylline treatment. It counts as in vivo, human. The conditions noted are these: 80 μg theophylline via nasal spray once per day, 3 months. Here is the method:
as §1

Setting [3] is: 3 months after initial administration, 80 μg theophylline nasal spray once per day, Pre value 10.
Where [4] appears, read: 3 months after initial administration, 80 μg theophylline nasal spray once per day, Pre value 11.
Setting [5] is: 3 months after initial administration, 80 μg theophylline nasal spray once per day, Pre value 12.

As to `Cn1c(=O)c2[nH]cnc2n(C)c1=O` [theophylline], in series [1] (setting [3]), the “DT Thio (detection threshold, thiophene)” value was found to be 4 bottle units and the “RT Thio (recognition threshold, thiophene)” value was determined as 4 bottle units. In series [1] (setting [4]), the “DT AA (detection threshold, amyl acetate)” value came to 4 bottle units; the “DT NO2B (detection threshold, nitrobenzene)” value is 9 bottle units; the “RT Pyr (recognition threshold, pyridine)” value is 7 bottle units. In addition, the “DT Pyr (detection threshold, pyridine)” value in series [1] (3 months after initial administration, 80 μg theophylline nasal spray once per day, Pre value 11, 5 or lower is normal) is 7 bottle units. In series [1] (setting [5]), the “RT AA (recognition threshold, amyl acetate)” value was found to be 4 bottle units and the “RT NO2B (recognition threshold, nitrobenzene)” value is recorded as 9 bottle units. Moreover, the “improvement of recognition threshold (RT) of AA” value in series [1] (3 months vs baseline, 80 μg theophylline nasal spray once per day) is on record as 8 bottle units. In addition, the “factor by which the detectable concentration of AA was lower” value in series [1] (3 months vs baseline, 1 bottle unit = 10 times lower concentration) is reported as 10^8. In series [1] (3 months vs baseline, pyridine, nitrobenzene, thiophene, amyl acetate), the “detection threshold and recognition threshold in all four odorant tests” value is “improved”. In addition, in series [2], the side effects entry is recorded as “No side effects”.
